Experimental data published in patent US12559629B2, “Method for preparing a stable Trypan Blue solution” (BECKMAN COULTER, INC., priority 2020, dated 2026).
Where two headings read alike, the source gives them in different places.

Legend:
[1] = cited from earlier work
[2] = Preliminary experiments: salt-induced precipitation/aggregation of 0.2% w/v aqueous Trypan Blue; type: physicochemical
[3] = Dye precipitation on mixing Nominal 0.4% Trypan Blue in NaCl with polycationic compounds; type: physicochemical; conditions: Nominal 0.4% Trypan Blue in NaCl (0.20 mL) mixed with 0.5 mg mL^−1 compound in PBS (0.20 mL)
Text: In the present study, Trypan Blue was mixed with various cell culture medium containing polycationic compounds. Nominal 0.4% Trypan Blue in NaCl was mixed with PBS (negative control), kanamycin (a positively charged aminoglycoside), and spermidine (a positively charged polyamine). […] This effect can be reasonably generalized to other polycationic compounds, particularly those containing amine functional groups.

Cc1cc(-c2ccc(/N=N/c3ccc4c(S(=O)(=O)O)cc(S(=O)(=O)O)c(N)c4c3O)c(C)c2)ccc1/N=N/c1ccc2c(S(=O)(=O)O)cc(S(=O)(=O)O)c(N)c2c1O [Evans Blue]
Solubility of precipitate with neomycin ([1]; pH 8.5): insoluble
Solubility of precipitate with neomycin ([1]; pH 10.4): dissolves

Cc1cc(-c2ccc(/N=N/c3c(S(=O)(=O)O)cc4cc(S(=O)(=O)O)cc(N)c4c3O)c(C)c2)ccc1/N=N/c1c(S(=O)(=O)O)cc2cc(S(=O)(=O)O)cc(N)c2c1O [Trypan Blue]
Formation of red colored dye aggregates ([2]; 0.2% w/v in deionized water, two weeks at 4° C.): did not form red colored dye aggregates

[Cl-].[Cs+] [cesium chloride]
Dye aggregation of Trypan Blue in presence of salt ([2]; 150 mM concentrations): produced dye aggregation

[Cl-].[Li+] [lithium chloride]
Dye aggregation of Trypan Blue in presence of salt ([2]; concentrations as high as 600 mM): did not promote dye aggregation

O=P([O-])(O)O.[Na+] [monosodium phosphate]
Dye aggregation of Trypan Blue in presence of salt ([2]; 150 mM sodium concentrations): promoted dye aggregation

[Cl-].[K+] [potassium chloride]
Dye aggregation of Trypan Blue in presence of salt ([2]; 150 mM concentrations): produced dye aggregation

[Cl-].[Na+] [sodium chloride]
Precipitation of 0.2% w/v Trypan Blue ([2]; 150 mM salt, storage for 16 hours at 4° C.): exhibited precipitation
Precipitation of the dye from 0.2% w/v aqueous solution of Trypan Blue ([2]; addition of 250 mM salt): rapid precipitation of the dye

O=S([O-])[O-].[Na+].[Na+] [sodium sulfite]
Dye aggregation of Trypan Blue in presence of salt ([2]; 150 mM sodium concentrations): promoted dye aggregation

NCCCCNCCCN [spermidine]
Precipitation of Trypan Blue [3]: trigger immediate precipitation of Trypan Blue
